For three compounds, Activity results are on record in ChEMBL document CHEMBL1148212, “New sphingosines from a gorgonian, Pseudopterogorgia australiensis Ridley, of the Indian Ocean” (J Nat Prod, 2004).

Holding throughout (format): functional, organism-based
For one experiment, the system named is Bacillus pumilus. The experiment can be described thus: Antimicrobial activity against Bacillus pumilus at 1 mg/mL by cup diffusion method.
The next experiment has as its system Proteus vulgaris. The experiment can be described thus: Antimicrobial activity against Proteus vulgaris at 1 mg/mL by cup diffusion method.
The subject of a further experiment is Staphylococcus aureus. The experiment can be described thus: Antimicrobial activity against Staphylococcus aureus at 1 mg/mL by cup diffusion method.
For another experiment, the system named is Pseudomonas aeruginosa. In words: Antimicrobial activity against Pseudomonas aeruginosa at 1 mg/mL by cup diffusion method.
The test system of the next experiment is Bacillus subtilis. The experiment can be described thus: Antimicrobial activity against Bacillus subtilis at 1 mg/mL by cup diffusion method.
The next experiment deals with Candida albicans. The experiment can be described thus: Antimicrobial activity against Candida albicans.
The next experiment deals with Escherichia coli. In words: Antimicrobial activity against Escherichia coli at 1 mg/mL by cup diffusion method.
For another experiment, the system named is Aspergillus niger. The experiment can be described thus: Antimicrobial activity against Aspergillus niger.

Activity calls are given as the source filed them. The calls are words filed in the database; no cut-off is given here.

`CCCCCCCCCCCCCCCCC[C@@H](O)C(=O)N[C@@H](CO)[C@H](O)[C@H](O)CCCCCCCCCCCCCCC`: the outcome with Bacillus pumilus, in the experiment on Proteus vulgaris, with Staphylococcus aureus, in the experiment with Pseudomonas aeruginosa, with Bacillus subtilis and in the experiment on Escherichia coli was Active. Moreover, the outcome in the experiment on Candida albicans and in the experiment on Aspergillus niger was inactive.

Regarding `CCCCCCCCCCCCCCCCCCCCCC(=O)N[C@@H](CO)[C@H](O)CCCCCCCCCCCCCCCC`, the result in the experiment on Bacillus pumilus, in the experiment with Proteus vulgaris, in the experiment on Staphylococcus aureus, in the experiment on Pseudomonas aeruginosa, with Bacillus subtilis and with Escherichia coli was Active. The result in the experiment with Candida albicans and with Aspergillus niger was inactive.

Turning to `CCCCCCCCCCCCC/C=C/[C@@H](O)[C@H](CO)NC(=O)CCCCCCCCCCCCCCCC`, the outcome with Bacillus pumilus, in the experiment on Proteus vulgaris, in the experiment on Staphylococcus aureus, in the experiment with Pseudomonas aeruginosa, in the experiment with Bacillus subtilis and in the experiment with Escherichia coli was Active. Besides, the outcome with Candida albicans and in the experiment with Aspergillus niger was inactive.
